Data: US20110086759A1, “CHEMICAL COMPOUNDS” (SYNGENTA CROP PROTECTION, INC., priority 2007, published 2011)

Legend:
Type in all cases: in vivo
[1] = test system: Echinochloa crus-galli (ECHCG); experiment: Pre-emergence biological efficacy, glasshouse pot test; details: 312 h, pre-emergence, 1,000 g/ha, evaluated after 13 days (100=total damage; 0=no damage), read-out: Percentage damage ECHCG
Procedure, shortened: (§1)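 Glasshouse pot test: spray on soil one day after sowing, 1000 or 250 g/ha. Conditions 24/16 °C day/night, 14 h light, 65% humidity. Plant damage scored 0–100 at 13 days.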

[2] = test system: Amaranthus retoflexus (AMARE); experiment: as above; details: Amaranthus retroflexus, 312 h; pre-emergence, 1,000 g/ha, evaluated after 13 days (100=total damage; 0=no damage); read-out: Percentage damage AMARE
Procedure, shortened: as §1

Solanum nigrum (SOLNI) [3] = experiment: as above; details: 312 h, pre-emergence, 1,000 g/ha, evaluated after 13 days (100=total damage; 0=no damage), read-out: Percentage damage SOLNI
Procedure, shortened: as §1

[4] = test system: Ipomea hederaceae (IPOHE); experiment: as above; details: Ipomoea hederacea, 312 h; pre-emergence, 1,000 g/ha, evaluated after 13 days (100=total damage; 0=no damage); read-out: Percentage damage IPOHE
Procedure, shortened: as §1

Setaria faberi (SETFA) [5] = experiment: as above; details: 312 h, pre-emergence, 1,000 g/ha, evaluated after 13 days (100=total damage; 0=no damage), read-out: Percentage damage SETFA
Procedure, shortened: as §1

[6] = test system: Alopecurus myosuroides (ALOMY); experiment: as above; details: 312 h, pre-emergence, 1,000 g/ha, evaluated after 13 days (100=total damage; 0=no damage), read-out: Percentage damage ALOMY
Procedure, shortened: as §1

[7] = test system: Echinochloa crus-galli (ECHCG); experiment: Post-emergence biological efficacy, glasshouse pot test; details: 312 h, post-emergence, 1,000 g/ha, evaluated after 13 days (100=total damage; 0=no damage), read-out: Percentage damage caused to weed species, ECHCG
Procedure, shortened: (§2)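 Pot-grown weeds were sprayed 8 days after sowing with test compound in acetone/water (50:50) with 0.5% Tween 20 at 1000 or 250 g/ha. Glasshouse at 24/16° C day/night, 14 h light, 65% humidity. Damage scored 0-100 (100 = total damage) after 13 days.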

[8] = test system: Amaranthus retoflexus (AMARE); experiment: as above; details: Amaranthus retroflexus, 312 h; post-emergence, 1,000 g/ha, evaluated after 13 days (100=total damage; 0=no damage); read-out: Percentage damage caused to weed species, AMARE
Procedure, shortened: as §2

Solanum nigrum (SOLNI) [9] = experiment: as above; details: 312 h, post-emergence, 1,000 g/ha, evaluated after 13 days (100=total damage; 0=no damage), read-out: Percentage damage caused to weed species, SOLNI
Procedure, shortened: as §2

[10] = test system: Ipomea hederaceae (IPOHE); experiment: as above; details: Ipomoea hederacea, 312 h; post-emergence, 1,000 g/ha, evaluated after 13 days (100=total damage; 0=no damage); read-out: Percentage damage caused to weed species, IPOHE
Procedure, shortened: as §2

Setaria faberi (SETFA) [11] = experiment: as above; details: 312 h, post-emergence, 1,000 g/ha, evaluated after 13 days (100=total damage; 0=no damage), read-out: Percentage damage caused to weed species, SETFA
Procedure, shortened: as §2

[12] = test system: Alopecurus myosuroides (ALOMY); experiment: as above; details: 312 h, post-emergence, 1,000 g/ha, evaluated after 13 days (100=total damage; 0=no damage), read-out: Percentage damage caused to weed species, ALOMY
Procedure, shortened: as §2

| Compound | pest or weed control at 1000 g/ha [1] [%] | pest or weed control at 1000 g/ha [2] [%] | pest or weed control at 1000 g/ha (Solanum nigrum (SOLNI) [3]) [%] | pest or weed control at 1000 g/ha [4] [%] | pest or weed control at 1000 g/ha (Setaria faberi (SETFA) [5]) [%] | pest or weed control at 1000 g/ha [6] [%] | pest or weed control at 1000 g/ha [7] [%] | pest or weed control at 1000 g/ha [8] [%] | pest or weed control at 1000 g/ha (Solanum nigrum (SOLNI) [9]) [%] | pest or weed control at 1000 g/ha [10] [%] | pest or weed control at 1000 g/ha (Setaria faberi (SETFA) [11]) [%] | pest or weed control at 1000 g/ha [12] [%] |
| --- | --- | --- | --- | --- | --- | --- | --- | --- | --- | --- | --- | --- |
| COC(=O)c1nc(C2CC2)nc(NCc2cccc(C(F)(F)F)c2)c1Cl [Compound 4-76, 5-Chloro-2-cyclopropyl-6-methoxycarbonyl-4-(3-trifluoromethyl-phenylmethyl-amino)pyrimidine] | 60 | 60 | 60 | 70 | 50 | 40 | 70 | 100 | 100 | 100 | 90 | 40 |
| COC(=O)c1nc(C2CC2)nc(NCc2ccc(C(F)(F)F)cc2)c1Cl [Compound 4-77, 5-Chloro-2-cyclopropyl-6-methoxycarbonyl-4-(4-trifluoromethyl-phenylmethyl-amino)pyrimidine] | 30 | 50 | 40 | 40 | 0 | 0 | 90 | 100 | 100 | 100 | 90 | 20 |
| COC(=O)c1nc(C2CC2)nc(NCc2ccccc2OC)c1Cl [Compound 4-78, 5-Chloro-2-cyclopropyl-6-methoxycarbonyl-4-(2-methoxyphenyl-methylamino)-pyrimidine] | 60 | 90 | 90 | 100 | 40 | 20 | 70 | 100 | 90 | 100 | 80 | 30 |
| COC(=O)c1nc(C2CC2)nc(NCc2ccc(OC)cc2)c1Cl [Compound 4-80, 5-Chloro-2-cyclopropyl-6-methoxycarbonyl-4-(4-methoxyphenyl-methylamino)-pyrimidine] | 50 | 90 | 90 | 90 | 60 | 40 | 60 | 100 | 100 | 100 | 90 | 30 |
| CCCCOc1ccc(CNc2nc(C3CC3)nc(C(=O)OC)c2Cl)cc1 [Compound 4-82, 4-(4-^nButoxyphenyl-methylamino)-5-chloro-2-cyclo-propyl-6-methoxy-carbonylpyrimidine] | 60 | 90 | 90 | 100 | 80 | 40 | 60 | 100 | 100 | 100 | 80 | 30 |
| COC(=O)c1nc(C2CC2)nc(NCc2ccc(OC(F)(F)F)cc2)c1Cl [Compound 4-83, 5-Chloro-2-cyclopropyl-6-methoxycarbonyl-4-(4-trifluoromethoxy-phenylmethyl-amino)pyrimidine] | 0 | 60 | 40 | 50 | 10 | 0 | 60 | 100 | 100 | 100 | 90 | 20 |
| COC(=O)c1nc(C2CC2)nc(NCc2ccc(N)cc2)c1Cl [Compound 4-86, 4-(4-Aminophenyl-methylamino)-5-chloro-2-cyclopropyl-6-methoxycarbonyl-pyrimidine] | 70 | 100 | 100 | 100 | 80 | 60 | 70 | 100 | 100 | 100 | 90 | 50 |
| COC(=O)c1nc(C2CC2)nc(NCc2ccc(N(C)C)cc2)c1Cl [Compound 4-87, 5-Chloro-2-cyclopropyl-4-(4-dimethylamino-phenylmethyl-amino)-6-methoxycarbonyl-pyrimidine] | 90 | 100 | 100 | 100 | 90 | 90 | 60 | 100 | 100 | 100 | 100 | 60 |
| COC(=O)c1nc(C2CC2)nc(NCc2ccccc2N2CCOCC2)c1Cl [Compound 4-88, 5-Chloro-2-cyclopropyl-6-methoxycarbonyl-4-(2-morpholin-4-yl-phenylmethyl-amino)-pyrimidine] | 50 | 70 | 70 | 100 | 20 | 40 | 60 | 100 | 80 | 80 | 60 | 50 |
| COC(=O)c1nc(C2CC2)nc(NCc2ccccc2[N+](=O)[O-])c1Cl [Compound 4-90, 5-Chloro-2-cyclopropyl-6-methoxycarbonyl-4-(2-nitrophenyl-methylamino)-pyrimidine] | 60 | 100 | 100 | 100 | 80 | 50 | 80 | 100 | 100 | 100 | 100 | 50 |
| COC(=O)c1nc(C2CC2)nc(NCc2cccc([N+](=O)[O-])c2)c1Cl [Compound 4-91, 5-Chloro-2-cyclopropyl-6-methoxycarbonyl-4-(3-nitrophenyl-methylamino)-pyrimidine] | 20 | 50 | 50 | 60 | 20 | 10 | 80 | 100 | 100 | 100 | 90 | 50 |
